Measurements from patent US6653321B1, “Naphthylsulfonic acids and related compounds as glucose uptake agonists” (Telik, Inc., priority 1999, dated 2003).

system: 3T3 L1 fibroblasts; experiment: Glucose transport activity (14C-2-deoxy-D-glucose uptake); type: cell-based; conditions: Mus musculus; differentiated 3T3 L1 cells, insulin 5.6 nM; concentration giving increase in glucose transport generally 150% of the vehicle control
Procedure: 3T3 L1 fibroblasts (ATCC) were grown in Dulbecco's modified Eagle's medium (DMEM) with 10% fetal bovine serum (FBS, medium). The cells were plated at a density of 3×10^4 cells/well in 24-well plates. Two days after confluence was reached, the cells were treated for 3 days with 0.5 mM isobutylmethylxanthine (IBMX), 1 μM dexamethasone, supplemented with 1.7 μM insulin. The cells were then transferred to medium with 1.7 μM insulin for 2 more days. The cells were maintained in medium for an additional 4 days. Finally the cells were serum starved overnight in 0.1% bovine serum albumin (BSA) in DMEM.
The following day, the culture medium was replaced with 150 mM NaCl, 1.7 mM KCl, 0.9 mM CaCl2, 1.47 mM K2HPO4 (pH 7.4) to which was added either the experimental compounds, or their vehicle (DMSO). Insulin or its vehicle (0.01% BSA) was diluted in the assay buffer (containing test compound or vehicle, respectively) to a final concentration of 5.6 nM. After incubation for 30 min at 37° C. 5 μCi/mL ^14C-2-[…]-D-glucose was added, and the incubation was continued for additional 30 min at 37° C. The cells were then washed 3 times with ice-cold PBS/20 mM glucose and […] in 250 μl of lysis buffer (50 mM HEPES pH 7.6, 1% Triton X-100) for 30 min at room temperature. Radioactivity in the lysate was quantified by scintillation counting.
Once ^14C-2-deoxy-D-glucose is transported into the cell it is not released. Glucose transport is, therefore, proportional to the amount of radioactivity in the lysate. The concentration of compound necessary to produce an increase in glucose transport greater than the sum of the standard deviation of the vehicle control plus the largest standard deviation of a test sample (generally 150% of the vehicle control) was recorded as the EC (effective concentration).

Row | Structure (SMILES) | EC50 [µM]
1 | Cc1cccc(C(=O)Nc2cc(C(=O)Nc3cccc4cc(S(=O)(=O)O)ccc34)cc(C(=O)Nc3cccc4cc(S(=O)(=O)O)ccc34)c2)c1 [Compound 7, 5-({3-[(3-methylphenyl)carbonylamino]-5-[N-(6-sulfonaphthyl)carbamoyl]phenyl}carbonylamino)naphthalene-2-sulfonic acid] | > 250
2 | Cc1ccc(C(=O)Nc2cc(C(=O)Nc3cccc4cc(S(=O)(=O)O)ccc34)cc(C(=O)Nc3cccc4cc(S(=O)(=O)O)ccc34)c2)cc1 [Compound 8, 5-({3-[(4-methylphenyl)carbonylamino]-5-[N-(6-sulfonaphthyl)carbamoyl]phenyl}carbonylamino)naphthalene-2-sulfonic acid] | 3
3 | COc1ccc(C(=O)Nc2cc(C(=O)Nc3cccc4cc(S(=O)(=O)O)ccc34)cc(C(=O)Nc3cccc4cc(S(=O)(=O)O)ccc34)c2)cc1 [Compound 9, 5-({3-[(4-methoxyphenyl)carbonylamino]-5-[N-(6-sulfonaphthyl)carbamoyl]phenyl}carbonylamino)naphthalene-2-sulfonic acid] | 10
4 | O=C(Nc1cc(C(=O)Nc2cccc3cc(S(=O)(=O)O)ccc23)cc(C(=O)Nc2cccc3cc(S(=O)(=O)O)ccc23)c1)c1cccc(Cl)c1 [Compound 10, 5-({3-[(3-chlorophenyl)carbonylamino]-5-[N-(6-sulfonaphthyl)carbamoyl]phenyl}carbonylamino)naphthalene-2-sulfonic acid] | 20

biological target: T1, β-kinase domain of the human insulin receptor (CKD) (Homo sapiens, UniProt P06213); experiment: 32P-Cytoplasmic Kinase Domain (CKD) autophosphorylation assay; type: biochemical; conditions: 32P incorporated into CKD band, percentage of the vehicle (DMSO) level; 10 minutes at room temperature; compound concentration not given
T1 construct: The complete β-kinase domain of the human insulin receptor (CKD); made in house
T1 sequence (P06213 980-1382 limits assumed): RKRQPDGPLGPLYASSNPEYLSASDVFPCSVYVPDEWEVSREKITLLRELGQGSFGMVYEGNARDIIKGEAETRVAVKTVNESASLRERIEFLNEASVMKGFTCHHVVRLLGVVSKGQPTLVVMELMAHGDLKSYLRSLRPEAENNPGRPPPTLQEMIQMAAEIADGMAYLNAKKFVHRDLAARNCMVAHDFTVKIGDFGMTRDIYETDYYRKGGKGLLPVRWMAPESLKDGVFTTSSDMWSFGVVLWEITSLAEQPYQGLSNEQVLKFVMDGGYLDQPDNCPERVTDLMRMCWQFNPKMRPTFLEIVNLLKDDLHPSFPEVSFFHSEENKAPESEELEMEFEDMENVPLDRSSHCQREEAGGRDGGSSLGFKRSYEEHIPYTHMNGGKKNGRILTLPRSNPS
Procedure: The complete β-kinase domain of the human insulin receptor (CKD) was expressed in, and purified from, baculovirus. CKD (4.0 μg/mL), in a solution of 50 mM Tris.HCl, 2 mM MnCl2, 10 mM MgCl2 (50 μl final volume), was combined with […] ATP, and 5 μCi ^32P-ATP (3000 Ci/mmol.). A test compound, or the vehicle (DMSO), was added to a final DMSO concentration of 1%. The mixture was incubated for 10 minutes at room temperature. The reaction was terminated by the addition of 10 μl of 200 mM EDTA. A 30 μl volume was removed, mixed with 5 μl of 6×Laemmeli sodium dodecyl sulfate (SDS) treatment buffer, and heated to 94° C. for 5 minutes. A 20 μl aliquot was then run on an SDS-PAGE gel. The radioactivity incorporated into the CKD band is quantified by phosphorimaging of the gel, or scintillation counting of the excised bands.
The potency of a compound for increasing phosphorylation is expressed as a percentage of the vehicle level.

Row | Structure (SMILES) | Activity (% Control)
5 | Cc1cccc(C(=O)Nc2cc(C(=O)Nc3cccc4cc(S(=O)(=O)O)ccc34)cc(C(=O)Nc3cccc4cc(S(=O)(=O)O)ccc34)c2)c1 [Compound 7, 5-({3-[(3-methylphenyl)carbonylamino]-5-[N-(6-sulfonaphthyl)carbamoyl]phenyl}carbonylamino)naphthalene-2-sulfonic acid] | 93.3
6 | Cc1ccc(C(=O)Nc2cc(C(=O)Nc3cccc4cc(S(=O)(=O)O)ccc34)cc(C(=O)Nc3cccc4cc(S(=O)(=O)O)ccc34)c2)cc1 [Compound 8, 5-({3-[(4-methylphenyl)carbonylamino]-5-[N-(6-sulfonaphthyl)carbamoyl]phenyl}carbonylamino)naphthalene-2-sulfonic acid] | 130.5
7 | COc1ccc(C(=O)Nc2cc(C(=O)Nc3cccc4cc(S(=O)(=O)O)ccc34)cc(C(=O)Nc3cccc4cc(S(=O)(=O)O)ccc34)c2)cc1 [Compound 9, 5-({3-[(4-methoxyphenyl)carbonylamino]-5-[N-(6-sulfonaphthyl)carbamoyl]phenyl}carbonylamino)naphthalene-2-sulfonic acid] | 125.3
8 | O=C(Nc1cc(C(=O)Nc2cccc3cc(S(=O)(=O)O)ccc23)cc(C(=O)Nc2cccc3cc(S(=O)(=O)O)ccc23)c1)c1cccc(Cl)c1 [Compound 10, 5-({3-[(3-chlorophenyl)carbonylamino]-5-[N-(6-sulfonaphthyl)carbamoyl]phenyl}carbonylamino)naphthalene-2-sulfonic acid] | 123.1
9 | O=C(Nc1cccc2cc(S(=O)(=O)O)ccc12)c1cc(NS(=O)(=O)c2ccc(F)cc2)cc(C(=O)Nc2cccc3cc(S(=O)(=O)O)ccc23)c1 [Compound 51, 5-[(3-{[(4-fluorophenyl)sulfonyl]amino}-5-[N-(6-sulfonaphthyl)carbamoyl]phenyl)carbonylamino]naphthalene-2-sulfonic acid] | 133.0
10 | COc1ccc(S(=O)(=O)Nc2cc(C(=O)Nc3cccc4cc(S(=O)(=O)O)ccc34)cc(C(=O)Nc3cccc4cc(S(=O)(=O)O)ccc34)c2)cc1 [Compound 52, 5-[(3-{[(4-methoxyphenyl)sulfonyl]amino}-5-[N-(6-sulfonaphthyl)carbamoyl]phenyl)carbonylamino]naphthalene-2-sulfonic acid] | 111.1
11 | Cc1ccc(S(=O)(=O)Nc2cc(C(=O)Nc3cccc4cc(S(=O)(=O)O)ccc34)cc(C(=O)Nc3cccc4cc(S(=O)(=O)O)ccc34)c2)cc1 [Compound 53, 5-[(3-{[(4-methylphenyl)sulfonyl]amino}-5-[N-(6-sulfonaphthyl)carbamoyl]phenyl)carbonylamino]naphthalene-2-sulfonic acid] | 105.7
12 | O=C(Nc1cccc2cc(S(=O)(=O)O)ccc12)c1cc(NS(=O)(=O)c2cccc3ccccc23)cc(C(=O)Nc2cccc3cc(S(=O)(=O)O)ccc23)c1 [Compound 54, 5-({3-[(1-naphthylsulfonyl)amino]-5-[N-(6-sulfonaphthyl)carbamoyl]phenyl}carbonylamino)naphthalene-2-sulfonic acid] | 46.5
13 | Cc1cc(C)c(S(=O)(=O)Nc2cc(C(=O)Nc3cccc4cc(S(=O)(=O)O)ccc34)cc(C(=O)Nc3cccc4cc(S(=O)(=O)O)ccc34)c2)c(C)c1 [Compound 55, 5-[(3-{[(2,4,6-trimethylphenyl)sulfonyl]amino}-5-[N-(6-sulfonaphthyl)carbamoyl]phenyl)carbonylamino]naphthalene-2-sulfonic acid] | 121.6
14 | O=C(Nc1cccc2cc(S(=O)(=O)O)ccc12)c1cc(NS(=O)(=O)Cc2ccccc2)cc(C(=O)Nc2cccc3cc(S(=O)(=O)O)ccc23)c1 [Compound 56, 5-[(5-{[benzylsulfonyl]amino}-3-[N-(6-sulfonaphthyl)carbamoyl]phenyl)carbonylamino]naphthalene-2-sulfonic acid] | 102.4
15 | COc1ccc(NC(=O)Nc2cc(C(=O)Nc3cccc4cc(S(=O)(=O)O)ccc34)cc(C(=O)Nc3cccc4cc(S(=O)(=O)O)ccc34)c2)cc1 [Compound 65, 5-[(3-{[(4-methoxyphenyl)amino]carbonylamino}-5-[N-(6-sulfonaphthyl)carbamoyl]phenyl)carbonylamino]naphthalene-2-sulfonic acid] | 85.9

More lines, now with the values ahead:

Row | Activity (% Control) | Structure (SMILES)
16 | 109.6 | O=C(Nc1cccc(Cl)c1)Nc1cc(C(=O)Nc2cccc3cc(S(=O)(=O)O)ccc23)cc(C(=O)Nc2cccc3cc(S(=O)(=O)O)ccc23)c1 [Compound 57, 5-[(3-{[(3-chlorophenyl)amino]carbonylamino}-5-[N-(6-sulfonaphthyl)carbamoyl]phenyl)carbonylamino]naphthalene-2-sulfonic acid]
17 | 106.4 | O=C(Nc1ccc(Cl)cc1)Nc1cc(C(=O)Nc2cccc3cc(S(=O)(=O)O)ccc23)cc(C(=O)Nc2cccc3cc(S(=O)(=O)O)ccc23)c1 [Compound 58, 5-[(3-{[(4-chlorophenyl)amino]carbonylamino}-5-[N-(6-sulfonaphthyl)carbamoyl]phenyl)carbonylamino]naphthalene-2-sulfonic acid]
18 | 120.4 | O=C(Nc1cc(C(=O)Nc2cccc3cc(S(=O)(=O)O)ccc23)cc(C(=O)Nc2cccc3cc(S(=O)(=O)O)ccc23)c1)Nc1ccccc1Cl [Compound 59, 5-[(3-{[(2-chlorophenyl)amino]carbonylamino}-5-[N-(6-sulfonaphthyl)carbamoyl]phenyl)carbonylamino]naphthalene-2-sulfonic acid]
19 | 97.5 | Cc1ccccc1NC(=O)Nc1cc(C(=O)Nc2cccc3cc(S(=O)(=O)O)ccc23)cc(C(=O)Nc2cccc3cc(S(=O)(=O)O)ccc23)c1 [Compound 60, 5-[(3-{[(2-methylphenyl)amino]carbonylamino}-5-[N-(6-sulfonaphthyl)carbamoyl]phenyl)carbonylamino]naphthalene-2-sulfonic acid]
20 | 114.6 | Cc1cccc(NC(=O)Nc2cc(C(=O)Nc3cccc4cc(S(=O)(=O)O)ccc34)cc(C(=O)Nc3cccc4cc(S(=O)(=O)O)ccc34)c2)c1 [Compound 61, 5-[(3-{[(3-methylphenyl)amino]carbonylamino}-5-[N-(6-sulfonaphthyl)carbamoyl]phenyl)carbonylamino]naphthalene-2-sulfonic acid]
21 | 102.8 | Cc1ccc(NC(=O)Nc2cc(C(=O)Nc3cccc4cc(S(=O)(=O)O)ccc34)cc(C(=O)Nc3cccc4cc(S(=O)(=O)O)ccc34)c2)cc1 [Compound 62, 5-[(3-{[(4-methylphenyl)amino]carbonylamino}-5-[N-(6-sulfonaphthyl)carbamoyl]phenyl)carbonylamino]naphthalene-2-sulfonic acid]
22 | 94.4 | COc1ccccc1NC(=O)Nc1cc(C(=O)Nc2cccc3cc(S(=O)(=O)O)ccc23)cc(C(=O)Nc2cccc3cc(S(=O)(=O)O)ccc23)c1 [Compound 63, 5-[(3-{[(2-methoxyphenyl)amino]carbonylamino}-5-[N-(6-sulfonaphthyl)carbamoyl]phenyl)carbonylamino]naphthalene-2-sulfonic acid]
23 | 58.3 | COc1cccc(NC(=O)Nc2cc(C(=O)Nc3cccc4cc(S(=O)(=O)O)ccc34)cc(C(=O)Nc3cccc4cc(S(=O)(=O)O)ccc34)c2)c1 [Compound 64, 5-[(3-{[(3-methoxyphenyl)amino]carbonylamino}-5-[N-(6-sulfonaphthyl)carbamoyl]phenyl)carbonylamino]naphthalene-2-sulfonic acid]
24 | 115.5 | O=C(Nc1ccccc1)Nc1cc(C(=O)Nc2cccc3cc(S(=O)(=O)O)ccc23)cc(C(=O)Nc2cccc3cc(S(=O)(=O)O)ccc23)c1 [Compound 66, 5-({3-[(phenylamino)carbonylamino]-5-[N-(6-sulfonaphthyl)carbamoyl]phenyl}carbonylamino)naphthalene-2-sulfonic acid]
